According to US8394952B2 (Vertex Pharmaceuticals Incorporated, priority 2006, dated 2013):

molecular target: Plk1 (Homo sapiens, UniProt P53350); test: biochemical
Sequence (P53350 20-338): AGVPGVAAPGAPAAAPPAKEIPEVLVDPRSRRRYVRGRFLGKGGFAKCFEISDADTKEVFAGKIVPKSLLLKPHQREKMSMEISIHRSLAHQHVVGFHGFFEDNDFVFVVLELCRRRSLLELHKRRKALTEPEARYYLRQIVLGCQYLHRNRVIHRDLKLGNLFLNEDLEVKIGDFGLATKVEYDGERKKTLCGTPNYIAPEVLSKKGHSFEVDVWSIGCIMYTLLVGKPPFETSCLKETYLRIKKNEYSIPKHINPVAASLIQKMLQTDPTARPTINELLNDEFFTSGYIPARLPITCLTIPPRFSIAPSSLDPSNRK

| Ki [nM] | SMILES |
| --- | --- |
| < 10 | COCCCNC(=O)c1ccc(Nc2ncc3c(n2)N(C2CCCC2)CC(C)(C)C(=O)N3C)c(OC)c1 [Compound I-198, 4-(9-cyclopentyl-5,7,7-trimethyl-6-oxo-6,7,8,9-tetrahydro-5H-pyrimido[4,5-b][1,4]diazepin-2-ylamino)-3-methoxy-N-(3-methoxypropyl)benzamide] |
| < 10 | COc1cc(C(=O)NC2CCN(C)CC2)ccc1Nc1ncc2c(n1)N(C1CCCC1)CC(C)(C)C(=O)N2C [Compound I-23, 4-(9-cyclopentyl-6,7,8,9-tetrahydro-5,7,7-trimethyl-6-oxo-5H-pyrimido[4,5-b][1,4]diazepin-2-ylamino)-3-methoxy-N-(1-methylpiperidin-4-yl)benzamide] |
| < 10 | CNC(=O)c1ccc(Nc2ncc3c(n2)N(CC2CC2(F)F)CC(C)(C)C(=O)N3C)c(OC)c1 (stereo not drawn) [Compound I-169, 4-(9-((2,2-difluorocyclopropyl)methyl)-6,7,8,9-tetrahydro-5,7,7-trimethyl-6-oxo-5H-pyrimido[4,5-b][1,4]diazepin-2-ylamino)-3-methoxy-N-methylbenzamide] |
| < 10 | COc1cc(C(=O)NCc2ccncc2)ccc1Nc1ncc2c(n1)N(C1CCCC1)CC(C)(C)C(=O)N2C [Compound I-212, 4-(9-cyclopentyl-5,7,7-trimethyl-6-oxo-6,7,8,9-tetrahydro-5H-pyrimido[4,5-b][1,4]diazepin-2-ylamino)-3-methoxy-N-(pyridin-4-ylmethyl)benzamide] |
| < 10 | COc1cc(C(=O)NCCN2CCC2)ccc1Nc1ncc2c(n1)N(C1CCCC1)CC(C)(C)C(=O)N2C [Compound I-38] |
| < 10 | CCc1cc(C(=O)NC)ccc1Nc1ncc2c(n1)N(C1CCCC1)CC(C)(C)C(=O)N2C [Compound I-118, 4-(9-cyclopentyl-6,7,8,9-tetrahydro-5,7,7-trimethyl-6-oxo-5H-pyrimido[4,5-b][1,4]diazepin-2-ylamino)-3-ethyl-N-methylbenzamide] |
| < 10 | CN1C(=O)C(C)(C)CN(C2CCCC2)c2nc(Nc3ccc(-c4cc[nH]n4)cc3)ncc21 [Compound I-99, 2-(4-(1H-pyrazol-3-yl)phenylamino)-9-cyclopentyl-8,9-dihydro-5,7,7-trimethyl-5H-pyrimido[4,5-b][1,4]diazepin-6(7H)-one] |
| < 10 | COc1cc(C(=O)NC2(CO)CC2)ccc1Nc1ncc2c(n1)N(C1CCCC1)CC(C)(C)C(=O)N2C [Compound I-266] |
| < 10 | CN1C(=O)C(C)(C)CN(C2CCCC2)c2nc(Nc3ccc4cn[nH]c4c3)ncc21 [Compound I-47, 2-(1H-indazo-6-ylamino)-9-cyclopentyl-8,9-dihydro-5,7,7-trimethyl-5H-pyrimido[4,5-b][1,4]diazepin-6(7H)-one] |
| < 10 | COc1cc(C(=O)Nc2cc(C)[nH]n2)ccc1Nc1ncc2c(n1)N(C1CCCC1)CC(C)(C)C(=O)N2C [Compound I-231, 4-(9-cyclopentyl-5,7,7-trimethyl-6-oxo-6,7,8,9-tetrahydro-5H-pyrimido[4,5-b][1,4]diazepin-2-ylamino)-3-methoxy-N-(5-methyl-1H-pyrazol-3-yl)benzamide] |
| < 10 | COc1cc(C(=O)NC2CN(C(C)C)C2)ccc1Nc1ncc2c(n1)N(C1CCCC1)CC(C)(C)C(=O)N2C [Compound I-52, 4-(9-cyclopentyl-6,7,8,9-tetrahydro-5,7,7-trimethyl-6-oxo-5H-pyrimido[4,5-b][1,4]diazepin-2-ylamino)-N-(1-isopropylazetidin-3-yl)-3-methoxybenzamide] |
| 10 to 100 | COc1ccccc1Nc1ncc2c(n1)N(C1CCCC1)CCC(=O)N2C [Compound I-188, 9-cyclopentyl-2-(2-methoxyphenylamino)-5-methyl-8,9-dihydro-5H-pyrimido[4,5-b][1,4]diazepin-6(7H)-one] |
